What was measured:
Assay type in all cases: cell-based, mouse
BMDCs = assay: Cytokine expression by bone marrow-derived dendritic cells (BMDCs)
From the text: (§1) FIGS. 34A-34I depicts GM-CSF mediates proinflammatory cytokine expression by myeloid cells and synovial fibroblasts in arthritic mice. Synovial tissues were dissected from wild-type AIA mice and dissociated into single cell suspensions. (FIG. 34A) Flow cytometry plots depicting the fractionation into different populations based on differential expression of surface markers. (FIG. 34B) The mRNA expression of several proinflammatory cytokines in sorted CD45^+ TCRβ^+ (TCRβ^+ in short), CD45^+ TCRβ^−CD11c^−CD11b^+ (CD11b^+) and CD45^+ TCRβ^−CD11c^+ (CD11c^+) populations was measured by qPCR. The qPCR data were normalized to GAPDH. (FIG. 34C) The mRNA expression of IL-6, IL-1β and TNF-α in sorted Ly6C^hiLy6G^− and Ly6C^loLy6G^hi populations (gated on CD11b^+ cells). The qPCR data were normalized to GAPDH. (FIGS. 34D and 34E) The mRNA expression of IL-6 and IL-1β by BMDMs (FIG. 34D) and BMDCs (FIG. 34E) upon stimulation with 20 ng/ml GM-CSF for 1 h. The qPCR data were normalized to GAPDH. (FIGS. 34F and 34G) BMDMs (FIG. 34F) and BMDCs (FIG. 34G) were stimulated with GM-CSF at indicated concentrations (n=3 per group) for 18 h. The secretion of IL-6 in the culture supernatant was quantified by ELISA. (FIG. 34H) BMDMs were primed with LPS (100 μg/ml) in the presence of GM-CSF at indicated concentrations (n=3 per group) for 6 h, followed by stimulation with ATP (5 mM) for 30 min. The secretion of IL-1β in the culture supernatant was quantified by ELISA. (FIG. 34I) Cells were cultured in DMEM medium supplemented with 10% FBS for over 20 days with more than 5 passages to obtain synovial fibroblasts. Synovial fibroblasts were stimulated with GM-CSF (20 ng/ml) for 1 h and harvested for RNA extraction. The mRNA expression of IL-1β was measured by qPCR. The qPCR data were normalized to GAPDH. All data shown represent two independent experiments. *p<0.05, **p<0.01.
To test the regulatory role of GM-CSF in the expression of IL-6 and IL-1β, bone marrow-derived macrophages (BMDMs) and bone marrow-derived dendritic cells (BMDCs) were cultured, and stimulated with GM-CSF. […]

synovial fibroblasts = assay: Cytokine mRNA expression by synovial fibroblasts
From the text: as §1, with “(FIG. 34H) BMDMs were primed with LPS (100 μg/ml) in the presence of GM-CSF at indicated concentrations (n=3 per group) for 6 h, followed by stimulation with ATP (5 mM) for 30 min.” left out, “(FIG. 34I) Cells were cultured in DMEM medium supplemented with 10% FBS for over 20 days with more than 5 passages to obtain synovial fibroblasts. Synovial fibroblasts were stimulated with GM-CSF (20 ng/ml) for 1 h and harvested for RNA extraction.” left out, “The qPCR data were normalized to GAPDH. All data shown represent two independent experiments. *p<0.05, **p<0.01.” left out

BMDMs = assay: Cytokine expression by bone marrow-derived macrophages (BMDMs)
From the text: as §1
To test the regulatory role of GM-CSF in the expression of IL-6 and IL-1β, bone marrow-derived macrophages (BMDMs) and bone marrow-derived dendritic cells (BMDCs) were cultured, and stimulated with GM-CSF. […] To induce mature IL-1β secretion, BMDMs were primed with LPS for 6 h during which different concentrations of GM-CSF was added, followed by ATP stimulation. […] An inducible effect of GM-CSF on TNF-α expression was not observed in BMDMs, BMDCs or synovial fibroblasts (data not shown). Given the functional importance of IL-6 and IL-1β in arthritis development (Choy and Panayi, 2001), TH-cell-secreted GM-CSF may mediate synovial inflammation also via eliciting the expression of IL-6 and IL-1β from myeloid cells and synovial fibroblasts.

GM-CSF: granulocyte macrophage colony-stimulating factor (ImmunoTools) given intraarticularly or added to cell cultures
mRNA expression of IL-6 and IL-1β in BMDCs (BMDCs; 20 ng/ml, 1 h): quickly upregulated
secretion of IL-6 from BMDCs (BMDCs; 18 h, ELISA): markedly increased
TNF-α expression in BMDCs (BMDCs; data not shown): not observed
IL-1β mRNA expression in synovial fibroblasts (synovial fibroblasts; 20 ng/ml, 1 h): increased IL-1β mRNA expression
TNF-α expression in synovial fibroblasts (synovial fibroblasts; data not shown): not observed
mRNA expression of IL-6 and IL-1β in BMDMs (BMDMs; 20 ng/ml, 1 h): quickly upregulated
secretion of IL-6 from BMDMs (BMDMs; 18 h, ELISA): markedly increased
secretion of IL-1β from BMDMs (BMDMs; LPS priming 6 h, then ATP 30 min, ELISA): significantly enhanced
TNF-α expression in BMDMs (BMDMs; data not shown): not observed
